# ChEMBL document CHEMBL1134042, “[Lys3]Didemnins as potential affinity ligands” (Bioorg Med Chem Lett, 2001)
# How the values were obtained:
# [1] = Cytotoxicity in NCI-60 human tumor cells; format: functional; conditions: read-out: LC50 (the source's name)
# [2] = Antiproliferative activity as 50% growth inhibition of NCI-60 human tumor cells; format: functional
# [3] = Total growth inhibition of NCI-60 human tumor cells by the compound was evaluated; format: functional
# [4] = Cell free protein biosynthesis inhibition activity was determined; format: functional, Homo sapiens
compound,measurement,setting,value
CC[C@H](C)[C@H]1NC(=O)[C@@H](NC(=O)[C@@H](CC(C)C)N(C)C(=O)[C@@H]2CCCN2C(=O)C(C)O)[C@@H](C)OC(=O)[C@H](Cc2ccc(OC)cc2)N(C)C(=O)[C@@H]2CCCN2C(=O)[C@H](CCCCN)NC(=O)[C@@H](C)C(=O)[C@H](C(C)C)OC(=O)C[C@@H]1O (some centres undefined),CC50,[1],25 µM
same,GI50,[2],6.4 µM
same,TGI,[3],22 µM
same,IC50,[4],154 µM
